This note sets out measurements from US20200172529A1, “Chemical Compound, Pharmaceutical Composition Thereof, and Use and Application Thereof” (Beijing Hanmi Pharm. Co., Ltd., priority 2017, published 2020).

Common to all, as to assay type: biochemical
The target of test [1] is T1, TYK2 kinase (Homo sapiens, UniProt P29597).
T1 construct: purchased Life Technologies PR8440C
Description: Inhibition assay of TYK2 kinase activity (ADP-Glo Kinase Assay). In a few lines: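 Enzyme at 0.8 ng/mL (2-fold final) in 40 mM Tris-HCl pH 7.5, 20 mM MgCl2, 0.1 mg/mL BSA, 1 mM DTT, preincubated 10 min with compound (6 points, 10-fold dilutions from 10 μM). ATP plus polyE4Y1 then added for 60 min at room temperature. ADP-Glo luminescence read and IC50 derived.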
A general note: ADP-Glo first removes unused ATP, then detects ADP through luciferase.

The target of test [2] is SYK kinase (Homo sapiens, UniProt P43405). As to the kind of experiment: Inhibition assay of SYK kinase activity (ADP-Glo Kinase Assay). The source says:
Inhibition assay of SYK kinase activity: the method in ADP-Glo™ Kinase Assay (Promega, V9102) was used to determine the inhibitory activity of the test compounds against SYK kinase.

Test [3] concerns the target JAK1 kinase (Homo sapiens, UniProt P23458). Description: Inhibition assay of JAK1 kinase activity (ADP-Glo Kinase Assay). The text has this:
Inhibition assay of JAK1 kinase activity: the method in ADP-Glo™ Kinase Assay (Promega, V9102) was used to determine the inhibitory activity of the test compounds against JAK1 kinase.

The target of test [4] is T2, JAK3 kinase (Homo sapiens, UniProt P52333).
T2 sequence (P52333 1-1124): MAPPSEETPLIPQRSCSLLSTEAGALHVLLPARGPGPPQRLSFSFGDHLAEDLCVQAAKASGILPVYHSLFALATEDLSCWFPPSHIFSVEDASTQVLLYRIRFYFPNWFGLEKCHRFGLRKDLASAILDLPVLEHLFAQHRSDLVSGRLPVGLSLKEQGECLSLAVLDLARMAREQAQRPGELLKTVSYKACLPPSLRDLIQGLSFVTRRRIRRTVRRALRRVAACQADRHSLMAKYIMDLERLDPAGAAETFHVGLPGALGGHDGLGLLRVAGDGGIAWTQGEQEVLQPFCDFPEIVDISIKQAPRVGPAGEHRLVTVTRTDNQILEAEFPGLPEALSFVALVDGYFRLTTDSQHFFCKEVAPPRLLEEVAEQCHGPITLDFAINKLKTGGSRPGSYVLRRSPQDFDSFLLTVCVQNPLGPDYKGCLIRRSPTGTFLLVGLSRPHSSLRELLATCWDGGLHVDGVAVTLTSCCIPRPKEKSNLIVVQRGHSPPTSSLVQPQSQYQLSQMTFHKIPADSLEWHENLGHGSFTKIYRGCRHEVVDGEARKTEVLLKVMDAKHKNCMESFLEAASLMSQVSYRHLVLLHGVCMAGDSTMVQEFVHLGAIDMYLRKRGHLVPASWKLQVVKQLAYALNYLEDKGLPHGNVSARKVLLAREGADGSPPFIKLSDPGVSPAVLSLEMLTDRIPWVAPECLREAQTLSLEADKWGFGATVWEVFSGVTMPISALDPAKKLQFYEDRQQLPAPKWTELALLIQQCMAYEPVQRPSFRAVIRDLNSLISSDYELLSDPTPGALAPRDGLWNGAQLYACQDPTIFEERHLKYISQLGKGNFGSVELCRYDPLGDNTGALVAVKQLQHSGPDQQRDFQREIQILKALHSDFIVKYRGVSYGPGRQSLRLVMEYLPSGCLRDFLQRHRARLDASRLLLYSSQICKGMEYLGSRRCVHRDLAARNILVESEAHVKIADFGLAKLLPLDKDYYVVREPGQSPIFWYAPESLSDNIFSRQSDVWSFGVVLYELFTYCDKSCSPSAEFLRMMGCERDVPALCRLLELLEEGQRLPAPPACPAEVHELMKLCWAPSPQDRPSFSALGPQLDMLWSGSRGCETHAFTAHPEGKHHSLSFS
Description: Inhibition assay of JAK3 kinase activity (ADP-Glo Kinase Assay). The text has this: Inhibition assay of JAK3 kinase activity: the method in ADP-Glo™ Kinase Assay (Promega, V9102) was used to determine the inhibitory activity of the test compounds against JAK3 kinase.

Test [5] has as its target JAK2 kinase (Homo sapiens, UniProt O60674). As to the kind of experiment: Inhibition assay of JAK2 kinase activity (ADP-Glo Kinase Assay). The source says:
Inhibition assay of JAK2 kinase activity: the method in ADP-Glo™ Kinase Assay (Promega, V9102) was used to determine the inhibitory activity of the test compounds against JAK2 kinase.

pIC50: −log10 of the molar value. A value given as a limit tells only on which side of the number the result lay.

JAK2 kinase, sequence (O60674 whole entry): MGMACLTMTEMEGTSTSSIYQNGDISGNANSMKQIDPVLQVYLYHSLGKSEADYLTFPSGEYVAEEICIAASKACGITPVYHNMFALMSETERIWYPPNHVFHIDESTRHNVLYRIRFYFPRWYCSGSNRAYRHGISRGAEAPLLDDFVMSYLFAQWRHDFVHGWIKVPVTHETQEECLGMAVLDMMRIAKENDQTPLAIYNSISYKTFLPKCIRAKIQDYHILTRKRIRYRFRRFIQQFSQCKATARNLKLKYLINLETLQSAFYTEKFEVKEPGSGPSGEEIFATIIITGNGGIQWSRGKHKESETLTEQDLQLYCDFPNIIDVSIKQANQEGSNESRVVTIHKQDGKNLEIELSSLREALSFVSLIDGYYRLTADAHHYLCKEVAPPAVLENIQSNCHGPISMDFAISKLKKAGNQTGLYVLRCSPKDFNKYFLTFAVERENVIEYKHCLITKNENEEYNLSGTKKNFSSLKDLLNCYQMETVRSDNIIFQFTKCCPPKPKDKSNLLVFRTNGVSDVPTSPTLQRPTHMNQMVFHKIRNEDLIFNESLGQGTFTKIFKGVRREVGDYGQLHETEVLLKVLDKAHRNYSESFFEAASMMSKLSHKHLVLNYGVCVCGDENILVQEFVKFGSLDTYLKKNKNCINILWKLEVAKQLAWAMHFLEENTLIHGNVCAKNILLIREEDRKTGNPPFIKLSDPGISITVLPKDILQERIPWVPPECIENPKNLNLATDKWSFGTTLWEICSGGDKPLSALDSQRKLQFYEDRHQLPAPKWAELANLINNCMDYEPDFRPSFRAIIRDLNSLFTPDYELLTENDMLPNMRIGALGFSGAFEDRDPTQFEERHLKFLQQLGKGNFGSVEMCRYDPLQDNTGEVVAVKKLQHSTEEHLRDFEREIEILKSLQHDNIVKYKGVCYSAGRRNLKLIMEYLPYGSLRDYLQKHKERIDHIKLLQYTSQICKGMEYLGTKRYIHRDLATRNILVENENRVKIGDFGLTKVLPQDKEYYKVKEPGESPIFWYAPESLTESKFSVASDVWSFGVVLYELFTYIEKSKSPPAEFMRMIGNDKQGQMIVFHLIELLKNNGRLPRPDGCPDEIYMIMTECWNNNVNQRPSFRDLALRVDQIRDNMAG
T1 sequence (P29597 whole entry): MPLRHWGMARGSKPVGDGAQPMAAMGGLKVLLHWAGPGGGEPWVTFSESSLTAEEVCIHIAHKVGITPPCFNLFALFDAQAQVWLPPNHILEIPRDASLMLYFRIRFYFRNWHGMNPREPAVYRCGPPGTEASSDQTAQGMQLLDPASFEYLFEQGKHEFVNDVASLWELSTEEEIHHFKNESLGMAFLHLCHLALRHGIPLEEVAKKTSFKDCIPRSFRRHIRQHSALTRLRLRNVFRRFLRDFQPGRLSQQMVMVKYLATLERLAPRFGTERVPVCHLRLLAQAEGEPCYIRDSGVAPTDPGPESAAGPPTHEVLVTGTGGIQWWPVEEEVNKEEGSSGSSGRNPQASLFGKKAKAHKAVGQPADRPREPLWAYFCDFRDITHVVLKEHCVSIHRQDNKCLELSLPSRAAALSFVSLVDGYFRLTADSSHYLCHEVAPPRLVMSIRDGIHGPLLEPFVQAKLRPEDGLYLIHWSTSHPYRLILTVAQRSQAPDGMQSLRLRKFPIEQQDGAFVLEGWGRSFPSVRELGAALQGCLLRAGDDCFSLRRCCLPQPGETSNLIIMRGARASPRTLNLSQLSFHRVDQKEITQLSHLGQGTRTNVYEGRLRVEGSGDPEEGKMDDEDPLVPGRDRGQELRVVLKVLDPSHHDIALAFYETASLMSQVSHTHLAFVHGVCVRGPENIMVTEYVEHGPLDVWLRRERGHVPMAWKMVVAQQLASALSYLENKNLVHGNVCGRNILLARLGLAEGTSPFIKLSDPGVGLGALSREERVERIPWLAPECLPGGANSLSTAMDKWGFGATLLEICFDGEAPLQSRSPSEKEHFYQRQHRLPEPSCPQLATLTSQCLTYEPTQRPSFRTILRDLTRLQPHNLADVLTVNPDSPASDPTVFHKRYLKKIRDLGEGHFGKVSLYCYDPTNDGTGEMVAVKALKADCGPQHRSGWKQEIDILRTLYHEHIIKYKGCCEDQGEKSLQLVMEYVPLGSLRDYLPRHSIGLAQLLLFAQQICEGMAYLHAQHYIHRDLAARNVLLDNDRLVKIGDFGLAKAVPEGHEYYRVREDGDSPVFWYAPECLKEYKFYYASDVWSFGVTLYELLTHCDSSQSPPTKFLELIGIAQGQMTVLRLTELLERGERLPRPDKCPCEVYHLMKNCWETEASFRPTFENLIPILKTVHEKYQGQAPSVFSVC
JAK1 kinase, sequence (P23458 whole entry): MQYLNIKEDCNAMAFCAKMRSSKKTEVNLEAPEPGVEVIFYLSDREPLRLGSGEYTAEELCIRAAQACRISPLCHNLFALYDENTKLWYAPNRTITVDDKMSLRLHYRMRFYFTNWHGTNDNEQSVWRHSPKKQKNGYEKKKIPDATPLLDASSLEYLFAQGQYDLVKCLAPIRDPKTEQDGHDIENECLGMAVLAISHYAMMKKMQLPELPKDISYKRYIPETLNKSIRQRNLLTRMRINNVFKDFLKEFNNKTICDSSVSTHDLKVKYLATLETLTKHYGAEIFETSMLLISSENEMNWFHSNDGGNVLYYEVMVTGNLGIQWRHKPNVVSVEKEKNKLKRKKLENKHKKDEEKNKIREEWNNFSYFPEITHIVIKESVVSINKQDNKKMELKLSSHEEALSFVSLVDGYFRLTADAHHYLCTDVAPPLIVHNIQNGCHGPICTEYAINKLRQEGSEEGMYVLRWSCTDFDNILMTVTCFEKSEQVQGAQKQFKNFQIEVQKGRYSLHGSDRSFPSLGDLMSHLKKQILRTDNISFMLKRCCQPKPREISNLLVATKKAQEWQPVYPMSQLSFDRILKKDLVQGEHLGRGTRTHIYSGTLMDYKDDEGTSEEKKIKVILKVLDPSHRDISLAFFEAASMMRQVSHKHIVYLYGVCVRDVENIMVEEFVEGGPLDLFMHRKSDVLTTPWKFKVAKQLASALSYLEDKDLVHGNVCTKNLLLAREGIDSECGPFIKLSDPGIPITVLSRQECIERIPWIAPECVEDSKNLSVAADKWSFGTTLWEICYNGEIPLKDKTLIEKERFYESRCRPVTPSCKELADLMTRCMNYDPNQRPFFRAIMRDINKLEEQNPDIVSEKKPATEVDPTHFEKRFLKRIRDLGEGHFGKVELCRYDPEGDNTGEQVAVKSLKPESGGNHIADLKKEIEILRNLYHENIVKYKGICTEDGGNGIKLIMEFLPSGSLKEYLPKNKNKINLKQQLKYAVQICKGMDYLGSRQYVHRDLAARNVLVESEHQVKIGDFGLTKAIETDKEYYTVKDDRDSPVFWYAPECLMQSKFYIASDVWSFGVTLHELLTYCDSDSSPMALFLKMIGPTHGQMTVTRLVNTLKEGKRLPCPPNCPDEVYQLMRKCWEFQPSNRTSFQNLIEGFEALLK

As a reminder, the pIC50 is the negative decadic logarithm of the IC50, by convention in mol/L. In the case of `NC(=O)c1cnc(Nc2ccc3c(c2)NCC(O)CO3)nc1NC1CCC1` (stereo not shown) [Example 1, 4-(cyclobutylamino)-2-((3-hydroxy-2,3,4,5-tetrahydro-benzo[b][1,4]oxazepin-7-yl)amino)pyrimidin-5-carboxamide], the figures for the pIC50 in test [1], in test [2] and in test [3] were > 8.00, 7.00 to 8.00 and > 8.00, respectively.

Turning to `COC1CNc2cc(Nc3ncc(C(N)=O)c(NC4CC4)n3)ccc2OC1` (stereo not shown) [Example 24, 4-(cyclopropylamino)-2-((3-methoxy-2,3,4,5-tetrahydro-benzo[b][1,4]oxazepin-7-yl)amino)pyrimidin-5-carboxamide], the pIC50 in test [4] was 7.00 to 8.00; in test [1], > 8.00; in test [2], 7.00 to 8.00; in test [5], 7.00 to 8.00; in test [3] it was 7.00 to 8.00.

As to `NC(=O)c1cnc(Nc2ccc3c(c2)NC[C@@H](O)CO3)nc1NC1CC1` [Example 25, (R)-4-(cyclopropylamino)-2-((3-hydroxy-2,3,4,5-tetrahydro-benzo[b][1,4]oxazepin-7-yl)amino)pyrimidin-5-carboxamide], the pIC50 in test [4] is > 8.00; in test [1] it was > 8.00; in test [2] it was 7.00 to 8.00; in test [5], > 8.00; in test [3] it was 7.00 to 8.00.

For the molecule `NC(=O)c1cnc(Nc2ccc3c(c2)NC[C@H](O)CO3)nc1NCC1CC1` [Example 44, 4-((cyclopropylmethyl)amino)-2-(((S)-2,3,4,5-tetrahydro-3-hydroxybenzo[b][1,4]oxazepin-7-yl)amino)pyrimidin-5-carboxamide], the pIC50 in test [4] is > 8.00; in test [1] it was > 8.00; in test [2] it was 7.00 to 8.00; in test [5], > 8.00; in test [3] it was > 8.00.

As to `NC(=O)c1cnc(Nc2ccc3c(c2)NC[C@H](O)CO3)nc1NC1CC1F` (stereo partly drawn) [Example 57, 4-((2-fluorocyclopropyl)amino)-2-(((S)-2,3,4,5-tetrahydro-3-hydroxybenzo[b][1,4]oxazepin-7-yl)amino)pyrimidin-5-carboxamide], the negative-log IC50 (pIC50) in test [4] is 7.00 to 8.00; in test [1], > 8.00; in test [2], 7.00 to 8.00; in test [5], 7.00 to 8.00; in test [3], > 8.00.

Consider `C=CCNc1nc(Nc2ccc3c(c2)NC[C@H](O)CO3)ncc1C(N)=O` [Example 60, 4-(allylamino)-2-(((S)-2,3,4,5-tetrahydro-3-hydroxybenzo[b][1,4]oxazepin-7-yl)amino)pyrimidin-5-carboxamide], for which the pIC50 in test [4] is 7.00 to 8.00; in test [1], > 8.00; in test [2], 7.00 to 8.00; in test [5], 7.00 to 8.00; in test [3], > 8.00.

On to `CC(C)CNc1nc(Nc2ccc3c(c2)NC[C@H](O)CO3)ncc1C(N)=O` [Example 70, 4-(isobutylamino)-2-(((S)-2,3,4,5-tetrahydro-3-hydroxybenzo[b][1,4]oxazepin-7-yl)amino)pyrimidin-5-carboxamide], for which the pIC50 in test [4], in test [1], in test [5] and in test [3] was > 8.00 each time.

As to `NC(=O)c1cnc(Nc2ccc3c(c2)NC[C@H](O)CO3)nc1NCC1CCCC1` [Example 73, 4-((cyclopentylmethyl)amino)-2-(((S)-2,3,4,5-tetrahydro-3-hydroxybenzo[b][1,4]oxazepin-7-yl)amino)pyrimidin-5-carboxamide], the pIC50 in test [4], in test [1], in test [5] and in test [3] was > 8.00 each time.

As for `CCCCNc1nc(Nc2ccc3c(c2)NC[C@H](O)CO3)ncc1C(N)=O` [Example 74, 4-(butylamino)-2-(((S)-2,3,4,5-tetrahydro-3-hydroxybenzo[b][1,4]oxazepin-7-yl)amino)pyrimidin-5-carboxamide], the pIC50 in test [4], in test [1], in test [5] and in test [3] was > 8.00 throughout.

As for `CCCCCNc1nc(Nc2ccc3c(c2)NC[C@H](O)CO3)ncc1C(N)=O` [Example 75, 4-(pentylamino)-2-(((S)-2,3,4,5-tetrahydro-3-hydroxybenzo[b][1,4]oxazepin-7-yl)amino)pyrimidin-5-carboxamide], the pIC50 in test [4], in test [1], in test [5] and in test [3] was > 8.00 in each case.

For `CCCO[C@H]1CNc2cc(Nc3ncc(C(N)=O)c(NC4CC4)n3)ccc2OC1` [Example 82, 4-(cyclopropylamino)-2-(((S)-2,3,4,5-tetrahydro-3-propoxybenzo[b][1,4]oxazepin-7-yl)amino)pyrimidin-5-carboxamide], the pIC50 in test [4] is 7.00 to 8.00; in test [1] it was > 8.00; in test [5], 7.00 to 8.00; in test [3], > 8.00.

`CO[C@H]1CNc2cc(Nc3ncc(C(N)=O)c(NC4C5CC6CC4CC(O)(C6)C5)n3)ccc2OC1` (stereo partly drawn) [Example 90, 4-((5-hydroxyadamantan-2-yl)amino)-2-(((S)-2,3,4,5-tetrahydro-3-methoxybenzo[b][1,4]oxazepin-7-yl)amino)pyrimidin-5-carboxamide]: the pIC50 was > 8.00 in test [4], > 8.00 in test [1], 7.00 to 8.00 in test [2] and > 8.00 in test [5].

As for `CO[C@H]1CNc2cc(Nc3ncc(C(N)=O)c(NC4C5CC6CC4CC(OC)(C6)C5)n3)ccc2OC1` (stereo partly drawn) [Example 93, 4-((5-methoxyadamantan-2-yl)amino)-2-(((S)-2,3,4,5-tetrahydro-3-methoxybenzo[b][1,4]oxazepin-7-yl)amino)pyrimidin-5-carboxamide], the pIC50 in test [4], in test [1], in test [5] and in test [3] was > 8.00 in each case.

Take `NC(=O)c1cnc(Nc2ccc3c(c2)NC[C@H](OCC2CCCCO2)CO3)nc1NC1CC1` (stereo partly drawn) [Example 99, 4-(cyclopropylamino)-2-(((S)-2,3,4,5-tetrahydro-3-(tetrahydro-2H-2-pyranylmethoxy)benzo[b][1,4]oxazepin-7-yl)amino)pyrimidin-5-carboxamide]: the pIC50 in test [1] is > 8.00; in test [2], 7.00 to 8.00; in test [3], > 8.00.

As for `COCCCCO[C@H]1CNc2cc(Nc3ncc(C(N)=O)c(NC4CC4)n3)ccc2OC1` [Example 100, 4-(cyclopropylamino)-2-(((S)-2,3,4,5-tetrahydro-3-(4-methoxybutoxy)benzo[b][1,4]oxazepin-7-yl)amino)pyrimidin-5-carboxamide], the pIC50 in test [1] was > 8.00; in test [2], 7.00 to 8.00; in test [3] it was > 8.00.

Take `NC(=O)c1cnc(Nc2ccc3c(c2)NC[C@H](OCC2CCCOC2)CO3)nc1NC1CC1` (stereo partly drawn) [Example 102, 4-(cyclopropylamino)-2-(((S)-2,3,4,5-tetrahydro-3-((tetrahydropyran-3-yl)methoxy)benzo[b][1,4]oxazepin-7-yl)amino)pyrimidin-5-carboxamide]: the pIC50 was 7.00 to 8.00 in test [4], > 8.00 in test [1], 7.00 to 8.00 in test [5] and > 8.00 in test [3].

`CC(C)(C)OCCO[C@H]1CNc2cc(Nc3ncc(C(N)=O)c(NC4CC4)n3)ccc2OC1` [Example 103, 4-(cyclopropylamino)-2-(((S)-2,3,4,5-tetrahydro-3-(2-(tert-butoxy)ethoxy)benzo[b][1,4]oxazepin-7-yl)amino)pyrimidin-5-carboxamide]: the pIC50 was 7.00 to 8.00 in test [4], > 8.00 in test [1], 7.00 to 8.00 in test [5] and > 8.00 in test [3].
